The results in this text go back to patent publication US20250145587A1, “BROMODOMAIN INHIBITORS” (AbbVie Inc., priority 2016, published 2025).

The experiment deals with BRD4 (BDI_K57-E168) (Homo sapiens, UniProt O60885). The experiment in a line: TR-FRET bromodomain binding assay, BRD4 first bromodomain (BDI). The method, then: A time-resolved fluorescence resonance energy transfer (TR-FRET) assay was used to determine the affinities of compounds of the Examples listed in Table 1 for each bromodomain of BRD4. […] An Alexa647-labeled BET-inhibitor was used as the fluorescent probe in the assay.
Compound dilution series were prepared in DMSO via an approximately 3-fold serial dilution. Compound dilutions were added directly into white, low-volume assay plates (Perkin Elmer Proxiplate 384 Plus #6008280) using a Labcyte Echo in conjunction with Labcyte Access and Thermo Multidrop CombinL robotics. Compounds were then suspended in eight microliters (μL) of assay buffer (20 mM Sodium Phosphate, pH 6.0, 50 mM NaCl, 1 mM Ethylenediaminetetraacetic acid disodium salt dihydrate, 0.01% Triton X-100, 1 mM DL-Dithiothreitol) containing His-tagged bromodomain, Europium-conjugated anti-His antibody (Invitrogen PV5596) and Alexa-647-conjugated probe.
After a one-hour equilibration at room temperature, TR-FRET ratios were determined using an Envision multilabel plate reader (Ex 340, Em 495/520).
TR-FRET data were normalized to the means of 24 no-compound controls (“high”) and 8 controls containing 1 μM un-labeled probe (“low”). Percent inhibition was plotted as a function of compound concentration and the data were fit with the 4 parameter logistic equation to obtain IC50s. Inhibition constants (Ki) were calculated from the IC50s, probe Kd and probe concentration.
Compound dilution series for Compounds A-E were prepared in DMSO via an approximately 3-fold serial dilution from 0.47 mM to 7.8 nM.
Compound dilutions were added directly into white, low-volume assay plates (Perkin Elmer Proxiplate 384 Plus #6008280) using a Labcyte Echo in conjunction with Labcyte Access and Thermo Multidrop CombinL robotics. Compounds were then suspended in eight microliters (μL) of assay buffer (20 mM Sodium Phosphate, pH 6.0, 50 mM NaCl, 1 mM Ethylenediaminetetraacetic acid disodium salt dihydrate, 0.01% Triton X-100, 1 mM DL-Dithiothreitol) containing His-tagged bromodomain, Europium-conjugated anti-His antibody (Invitrogen PV5596) and Alexa-647-conjugated probe.
The final concentration of 1× assay mixture contained 2% DMSO, 8 nM His-tagged bromodomain, 1 nM Europium-conjugated anti-His-tag antibody and 100 nM or 30 nM probe (for BDI or BDII, respectively) and compound concentration in the range of […]-150 μM.
TR-FRET data were normalized to the means of 24 no-compound controls (“high”) and 8 controls containing 1 μM un-labeled probe (“low”). Percent inhibition was plotted as a function of compound concentration and the data were fit with the 4 parameter logistic equation to obtain IC50s. Inhibition constants (Ki) were calculated from the IC50s, probe Kd and probe concentration. Typical Z′ values were between 0.65 and 0.75. The minimum significant ratio was determined to evaluate assay reproducibility (Eastwood et al., (2006) J Biomol Screen, 11: 253-261). The MSR was determined to be 2.03 for BDI and 1.93 for BDII, and a moving MSR (last six run MSR overtime) for both BDI and BDII was typically <3.
On the technique in general: In TR-FRET formats the signal depends on donor and acceptor labels being close together.
As for `CCS(=O)(=O)Nc1ccc(Oc2c(C)cc(F)cc2C)c(-c2cn(C)c(=O)cc2O[C@H]2CC[C@H](NC(=O)OC)CC2)c1` [Example 16, methyl {trans-4-[(5-{5-[(ethanesulfonyl)amino]-2-(4-fluoro-2,6-dimethylphenoxy)phenyl}-1-methyl-2-oxo-1,2-dihydropyridin-4-yl)oxy]cyclohexyl}carbamate], the Ki (in general, a measure of affinity in units of concentration, obtained from inhibition or displacement) came out at 313 nM. The molecule `CCS(=O)(=O)c1ccc(Oc2c(C)cccc2C)c(-c2cn(C)c(=O)cc2O[C@H]2CC[C@@H](NC(C)=O)CC2)c1` [Example 2, N-[cis-4-({5-[2-(2,6-dimethylphenoxy)-5-(ethanesulfonyl)phenyl]-1-methyl-2-oxo-1,2-dihydropyridin-4-yl}oxy)cyclohexyl]acetamide] returned a Ki of 2800 nM. The figure for `CCS(=O)(=O)c1ccc(Oc2c(C)cccc2C)c(-c2cn(C)c(=O)cc2O[C@H]2CC[C@H](NC(=O)C3(C)CC3)CC2)c1` [Example 10, N-[trans-4-({5-[2-(2,6-dimethylphenoxy)-5-(ethanesulfonyl)phenyl]-1-methyl-2-oxo-1,2-dihydropyridin-4-yl}oxy)cyclohexyl]-1-methylcyclopropane-1-carboxamide] is 524 nM; for `CCS(=O)(=O)c1ccc(Oc2c(C)cccc2C)c(-c2cn(C)c(=O)cc2O[C@H]2CC[C@H](NC(C)=O)CC2)c1` [Example 1, N-[trans-4-({5-[2-(2,6-dimethylphenoxy)-5-(ethanesulfonyl)phenyl]-1-methyl-2-oxo-1,2-dihydropyridin-4-yl}oxy)cyclohexyl]acetamide] it is 1160 nM. `CCS(=O)(=O)c1ccc(Oc2c(C)cccc2C)c(-c2cn(C)c(=O)cc2O[C@H]2CC[C@H](NC(=O)C3CC3)CC2)c1` [Example 11, N-[trans-4-({5-[2-(2,6-dimethylphenoxy)-5-(ethanesulfonyl)phenyl]-1-methyl-2-oxo-1,2-dihydropyridin-4-yl}oxy)cyclohexyl]cyclopropanecarboxamide] had a Ki of 773 nM. For the molecule `CCS(=O)(=O)c1ccc(Oc2c(C)cccc2C)c(-c2cn(C)c(=O)cc2O[C@H]2CC[C@H](NC(=O)OC)CC2)c1` [Example 3, methyl [trans-4-({5-[2-(2,6-dimethylphenoxy)-5-(ethanesulfonyl)phenyl]-1-methyl-2-oxo-1,2-dihydropyridin-4-yl}oxy)cyclohexyl]carbamate], the Ki was 1050 nM. With `CCS(=O)(=O)c1ccc(Oc2c(C)cccc2C)c(-c2cn(C)c(=O)cc2O[C@H]2CC[C@H](NC(=O)C(F)(F)F)CC2)c1` [Example 6, N-[trans-4-({5-[2-(2,6-dimethylphenoxy)-5-(ethanesulfonyl)phenyl]-1-methyl-2-oxo-1,2-dihydropyridin-4-yl}oxy)cyclohexyl]-2,2,2-trifluoroacetamide], the inhibitory constant (Ki) was found to be 823 nM. `CCS(=O)(=O)c1ccc(Oc2c(C)cc(F)cc2C)c(-c2cn(C)c(=O)cc2O[C@H]2CC[C@H](N(C)C(C)=O)CC2)c1` [Example 20, N-[trans-4-({5-[5-(ethanesulfonyl)-2-(4-fluoro-2,6-dimethylphenoxy)phenyl]-1-methyl-2-oxo-1,2-dihydropyridin-4-yl}oxy)cyclohexyl]-N-methylacetamide] came in with a Ki of 461 nM. As to `CCS(=O)(=O)c1ccc(Oc2c(C)cccc2C)c(-c2cn(C)c(=O)cc2O[C@H]2CC[C@H](NC(=O)C3(C)COC3)CC2)c1` [Example 12, N-[trans-4-({5-[2-(2,6-dimethylphenoxy)-5-(ethanesulfonyl)phenyl]-1-methyl-2-oxo-1,2-dihydropyridin-4-yl}oxy)cyclohexyl]-3-methyloxetane-3-carboxamide], the affinity, expressed as Ki, was 301 nM.

As to `CCS(=O)(=O)Nc1cnc(Oc2c(C)cc(F)cc2C)c(-c2cn(C)c(=O)cc2O[C@H]2CC[C@H](NC(=O)OC)CC2)c1` [Example 17, methyl [trans-4-({5′-[(ethanesulfonyl)amino]-2′-(4-fluoro-2,6-dimethylphenoxy)-1-methyl-6-oxo[1,6-dihydro[3,3′-bipyridine]]-4-yl}oxy)cyclohexyl]carbamate], the Ki was 419 nM.

With `CCS(=O)(=O)c1ccc(Oc2c(C)cccc2C)c(-c2cn(C)c(=O)cc2O[C@H]2CC[C@H](NC(=O)COC)CC2)c1` [Example 9, N-[trans-4-({5-[2-(2,6-dimethylphenoxy)-5-(ethanesulfonyl)phenyl]-1-methyl-2-oxo-1,2-dihydropyridin-4-yl}oxy)cyclohexyl]-2-methoxyacetamide], the Ki worked out at 474 nM. With `CCS(=O)(=O)Nc1ccc(Oc2c(C)cc(C(C)(C)O)cc2C)c(-c2cn(C)c(=O)cc2O[C@H]2CC[C@H](NC(C)=O)CC2)c1` [Example 14, N-{trans-4-[(5-{5-[(ethanesulfonyl)amino]-2-[4-(2-hydroxypropan-2-yl)-2,6-dimethylphenoxy]phenyl}-1-methyl-2-oxo-1,2-dihydropyridin-4-yl)oxy]cyclohexyl}acetamide], the Ki was found to be 95.3 nM.

`CCC(=O)N[C@H]1CC[C@H](Oc2cc(=O)n(C)cc2-c2cc(S(=O)(=O)CC)ccc2Oc2c(C)cccc2C)CC1` [Example 7, N-[trans-4-({5-[2-(2,6-dimethylphenoxy)-5-(ethanesulfonyl)phenyl]-1-methyl-2-oxo-1,2-dihydropyridin-4-yl}oxy)cyclohexyl]propanamide] displayed a Ki of 489 nM. Molecule `CCS(=O)(=O)c1ccc(Oc2c(C)cccc2C)c(-c2cn(C)c(=O)cc2O[C@H]2CC[C@H](NC(=O)C(C)(C)C)CC2)c1` [Example 8, N-[trans-4-({5-[2-(2,6-dimethylphenoxy)-5-(ethanesulfonyl)phenyl]-1-methyl-2-oxo-1,2-dihydropyridin-4-yl}oxy)cyclohexyl]-2,2-dimethylpropanamide] yielded a Ki of 627 nM. For `CCS(=O)(=O)c1ccc(Oc2c(C)cccc2C)c(-c2cn(C)c(=O)cc2O[C@H]2CC[C@H](NC(=O)C3CC(F)(F)C3)CC2)c1` [Example 13, N-[trans-4-({5-[2-(2,6-dimethylphenoxy)-5-(ethanesulfonyl)phenyl]-1-methyl-2-oxo-1,2-dihydropyridin-4-yl}oxy)cyclohexyl]-3,3-difluorocyclobutane-1-carboxamide], the Ki was found to be 462 nM. The figure for `CCS(=O)(=O)c1ccc(Oc2c(C)cccc2C)c(-c2cn(C)c(=O)cc2O[C@H]2CC[C@H](NC(=O)OC(C)(C)C)CC2)c1` [Example 5, tert-butyl [trans-4-({5-[2-(2,6-dimethylphenoxy)-5-(ethanesulfonyl)phenyl]-1-methyl-2-oxo-1,2-dihydropyridin-4-yl}oxy)cyclohexyl]carbamate] is 1280 nM. `CCS(=O)(=O)Nc1ccc(Oc2c(C)cc(C(C)(C)O)cc2C)c(-c2cn(C)c(=O)cc2O[C@H]2CC[C@H](NC(=O)OC)CC2)c1` [Example 15, methyl {trans-4-[(5-{5-[(ethanesulfonyl)amino]-2-[4-(2-hydroxypropan-2-yl)-2,6-dimethylphenoxy]phenyl}-1-methyl-2-oxo-1,2-dihydropyridin-4-yl)oxy]cyclohexyl}carbamate] came in with a Ki of 102 nM. Molecule `COC(=O)N[C@H]1CC[C@H](Oc2cc(=O)n(C)cc2-c2cc(CS(C)(=O)=O)ccc2Oc2c(C)cc(F)cc2C)CC1` [Example 18, methyl {trans-4-[(5-{2-(4-fluoro-2,6-dimethylphenoxy)-5-[(methanesulfonyl)methyl]phenyl}-1-methyl-2-oxo-1,2-dihydropyridin-4-yl)oxy]cyclohexyl}carbamate] gave an inhibition constant (Ki) of 903 nM.

`CCS(=O)(=O)c1ccc(Oc2c(C)cccc2C)c(-c2cn(C)c(=O)cc2O[C@H]2CC[C@H](NS(C)(=O)=O)CC2)c1` [Example 4, N-[trans-4-({5-[2-(2,6-dimethylphenoxy)-5-(ethanesulfonyl)phenyl]-1-methyl-2-oxo-1,2-dihydropyridin-4-yl}oxy)cyclohexyl]methanesulfonamide] yielded a Ki of 1050 nM. In turn, `CCS(=O)(=O)c1ccc(Oc2c(C)cc(F)cc2C)c(-c2cn(C)c(=O)cc2O[C@H]2CC[C@H](N3CCCC3=O)CC2)c1` [Example 19, 5-[5-(ethanesulfonyl)-2-(4-fluoro-2,6-dimethylphenoxy)phenyl]-1-methyl-4-{[trans-4-(2-oxopyrrolidin-1-yl)cyclohexyl]oxy}pyridin-2(1H)-one] returned a Ki of 615 nM.
